Measurements reported in patent publication US10961245B2, “Substituted heterocycle fused gamma-carbolines for treatment of central nervous system disorders” (INTRA-CELLULAR THERAPIES, INC., priority 2016, dated 2021).

Tests used:
μ(MOP) (h) receptor = target: T1, μ(MOP) (h) receptor (Homo sapiens, UniProt P35372); assay: Cellular functional assay, μ (MOP) (h) antagonist effect (cAMP, HTRF); format: cell-based
T1 construct: expressed in transfected cells; host or cells: CHO cells
Procedure: Cellular and Nuclear Receptor Functional Assays are performed on the compounds of Formula II-B and according to the procedure of Wang, J. B. et al. (1994), FEBS Lett., 338:217-222. The compounds are tested at several concentrations to determine their IC50 or EC50.
Cellular agonist effects are calculated as percent of control response to a known reference agonist for each target and cellular antagonist effect is calculated as a percent inhibition of control reference agonist response for each target.
The following assay is performed to determine the effect of the Compound of Formula on the μ(MOP) (h) receptor: […]
The results are expressed as a percent of control agonist response: […]
and as a percent inhibition of control agonist response:
The EC50 values (concentration producing a half-maximal response) and IC50 values (concentration causing a half-maximal inhibition of the control agonist response) are determined by non-linear regression analysis of the concentration-response curves generated with mean replicate values using Hill equation curve fitting:
[formula] where Y=response, A=left asymptote of the curve, D=right asymptote of the curve, C=compound concentration, and C50=EC50 or IC50, and nH=slope factor. The analysis is performed using software developed in-house and validated by comparison with data generated by the commercial software SigmaPlot® 4.0 for Windows® (© 1997 by SPSS Inc.).
For the antagonists, the apparent dissociation constants (KB) are calculated using the modified Cheng Prusoff equation:
[formula] where A=concentration of reference agonist in the assay, and EC50A=EC50 value of the reference agonist.

5-HT2A = 5-HT2A (Homo sapiens, UniProt P28223); assay: Receptor binding 5-HT2A; conditions: read-out: Ki (nM) or maximum inhibition
Procedure: (§1) Receptor binding is determined for the Compounds of Formulas II-A and II-B using the tosylate salt of the compound of Formula A as a control. The following literature procedures are used, each of which reference is incorporated herein by reference in their entireties:
(§2) In general, the results are expressed as a percent of control specific binding:
(§3) [formula] and as a percent inhibition of control specific binding: […]
(§4) The IC50 values (concentration causing a half-maximal inhibition of control specific binding) and Hill coefficients (nH) are determined by non-linear regression analysis of the competition curves generated with mean replicate values using Hill equation curve fitting:
(§5) [formula] where Y=specific binding, A=left asymptote of the curve, D=right asymptote of the curve, C=compound concentration, C50=IC50, and nH=slope factor. This analysis was performed using in-house software and validated by comparison with data generated by the commercial software SigmaPlot® 4.0 for Windows® (© 1997 by SPSS Inc.). The inhibition constants (Ki) were calculated using the Cheng Prusoff equation:
(§6) [formula] where L=concentration of radioligand in the assay, and KD=affinity of the radioligand for the receptor. A Scatchard plot is used to determine the KD.

D1 = D1 (Homo sapiens, UniProt P21728); assay: Receptor binding D1; conditions: read-out: Ki (nM) or maximum inhibition
Procedure: as §1, §2, §3, §4, §5, §6

SERT = SERT (Homo sapiens, UniProt P31645); assay: Receptor binding SERT; conditions: read-out: Ki (nM) or maximum inhibition
Procedure: as §1
SERT: Park, Y. M. et al. (1999), Anal. Biochem., 269:94-104.
as §2, §3, §4, §5, §6

Mu opiate receptor = Mu opiate receptor (Homo sapiens, UniProt P35372); assay: Receptor binding Mu opiate receptor; conditions: read-out: Ki (nM) or maximum inhibition
Procedure: as §1
Mu opiate receptor: Wang, J. B. et al. (1994), FEBS Lett., 338:217-222.
as §2, §3, §4, §5, §6

T1 sequence (P35372 whole entry): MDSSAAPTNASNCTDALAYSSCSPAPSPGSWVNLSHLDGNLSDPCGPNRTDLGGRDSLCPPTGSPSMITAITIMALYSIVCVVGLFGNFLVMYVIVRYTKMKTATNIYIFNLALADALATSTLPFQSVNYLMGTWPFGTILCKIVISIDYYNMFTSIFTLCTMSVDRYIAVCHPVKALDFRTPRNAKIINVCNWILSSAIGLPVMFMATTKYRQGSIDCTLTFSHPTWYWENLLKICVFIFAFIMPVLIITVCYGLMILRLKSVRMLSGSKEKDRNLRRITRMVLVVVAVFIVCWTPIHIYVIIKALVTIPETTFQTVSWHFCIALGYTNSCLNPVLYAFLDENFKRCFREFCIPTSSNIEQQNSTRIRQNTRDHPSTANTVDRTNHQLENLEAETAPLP
5-HT2A, sequence (P28223 whole entry): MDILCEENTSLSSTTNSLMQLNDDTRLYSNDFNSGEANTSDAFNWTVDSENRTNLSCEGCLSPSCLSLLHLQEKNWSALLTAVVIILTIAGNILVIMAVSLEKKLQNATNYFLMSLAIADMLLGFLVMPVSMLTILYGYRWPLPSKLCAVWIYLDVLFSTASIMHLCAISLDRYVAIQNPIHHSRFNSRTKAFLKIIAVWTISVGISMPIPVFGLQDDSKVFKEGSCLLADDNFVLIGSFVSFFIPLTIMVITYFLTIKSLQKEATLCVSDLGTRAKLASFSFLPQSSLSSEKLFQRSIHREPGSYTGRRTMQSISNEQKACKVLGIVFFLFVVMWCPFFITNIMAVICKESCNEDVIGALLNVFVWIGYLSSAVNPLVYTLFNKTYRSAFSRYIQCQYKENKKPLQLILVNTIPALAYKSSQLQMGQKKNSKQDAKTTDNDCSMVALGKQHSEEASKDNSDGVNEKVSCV
SERT, sequence (P31645 whole entry, species assumed): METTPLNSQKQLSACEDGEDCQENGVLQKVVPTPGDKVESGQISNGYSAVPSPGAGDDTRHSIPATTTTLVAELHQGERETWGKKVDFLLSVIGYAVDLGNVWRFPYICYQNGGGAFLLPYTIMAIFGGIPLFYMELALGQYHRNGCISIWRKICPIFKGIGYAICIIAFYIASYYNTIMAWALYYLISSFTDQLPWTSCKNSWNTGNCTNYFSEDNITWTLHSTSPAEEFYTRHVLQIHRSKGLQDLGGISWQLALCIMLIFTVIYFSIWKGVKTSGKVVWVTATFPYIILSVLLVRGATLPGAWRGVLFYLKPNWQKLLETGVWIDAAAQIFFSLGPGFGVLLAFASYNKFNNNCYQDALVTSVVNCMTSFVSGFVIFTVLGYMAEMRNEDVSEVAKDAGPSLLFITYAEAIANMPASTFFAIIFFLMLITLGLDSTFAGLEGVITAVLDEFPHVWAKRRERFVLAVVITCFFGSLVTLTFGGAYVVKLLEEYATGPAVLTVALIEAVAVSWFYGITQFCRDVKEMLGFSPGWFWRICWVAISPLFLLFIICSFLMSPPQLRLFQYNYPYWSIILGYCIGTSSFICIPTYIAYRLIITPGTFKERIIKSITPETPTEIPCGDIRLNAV
Mu opiate receptor, sequence (P35372 whole entry): as the sequence (P35372 whole entry) above
D1, sequence (P21728 whole entry): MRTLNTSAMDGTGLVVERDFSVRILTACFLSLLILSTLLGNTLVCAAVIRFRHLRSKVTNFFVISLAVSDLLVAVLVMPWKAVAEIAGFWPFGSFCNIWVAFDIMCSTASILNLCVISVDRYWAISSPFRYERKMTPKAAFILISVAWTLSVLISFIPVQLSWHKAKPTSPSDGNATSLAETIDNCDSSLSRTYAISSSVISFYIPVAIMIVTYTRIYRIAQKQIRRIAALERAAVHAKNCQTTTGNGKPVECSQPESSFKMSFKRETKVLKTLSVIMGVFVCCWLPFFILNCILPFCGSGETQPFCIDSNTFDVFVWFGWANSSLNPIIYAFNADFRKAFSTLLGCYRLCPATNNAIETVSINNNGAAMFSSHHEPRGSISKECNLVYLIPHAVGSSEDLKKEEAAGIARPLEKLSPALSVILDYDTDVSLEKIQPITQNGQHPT

IC50 (μ(MOP) (h) receptor; human recombinant CHO cells, DAMGO (20 nM) stimulus, cAMP) [µM]	Kb (μ(MOP) (h) receptor; modified Cheng Prusoff equation, DAMGO (20 nM), read-out: μ(MOP) (h) (antagonist effect) KB (apparent dissociation constant)) [µM]	Structure (SMILES)	IC50 (μ(MOP) (h) receptor; unit inferred, highest concentration tested) [µM]	Ki (5-HT2A) [nM]	Ki (D1) [nM]	inhibition at 1 µM (SERT) [%]	Ki (Mu opiate receptor) [nM]
1.3	0.14	CN1C(=O)CN2c3c(cccc31)[C@@H]1CN(CCCC(=O)c3ccncc3)CC[C@@H]12 [Formula II-B]	–	–	–	–	–
–	–	O=C1CN2c3c(cccc3[C@@H]3CN(CCCC(=O)c4ccncc4)CC[C@@H]32)N1 [Formula II-C]	> 10	37	470	40	400
